25 compounds from patent publication US8648092B2, “Imidazo[1,2-a]pyridine derivatives: preparation and pharmaceutical applications” (MEI Pharma, priority 2005, dated 2014) can be followed below.

The structures appear in SMILES notation.

For one assay, the system named is Colo205 cells. In words: Cell-based proliferation assay for determination of GI50 values (CyQUANT). More on the design: species or system human. Particulars: Homo sapiens. The procedure:
Cell-Based Proliferation Assay for Determination of GI50 Values
Human cancer cell lines (e.g. Colo205) were obtained from ATCC. Colo205 cells were cultivated in RPMI 1640 containing 2 mM L-Glutamine, 5% FBS, 1.0 mM Na Pyruvate. Colo205 cells were seeded in 96-wells plate at 5000 cells per well. The plates were incubated at 37° C., 5% CO2, for 24 h. Cells were treated with compounds at various concentrations for 96 h. Cell growth was then monitored using CyQUANT® cell proliferation assay (Invitrogen Pte Ltd). Dose response curves were plotted to determine GI50 values for the compounds using XL-fit (ID Business Solution, Emeryville, Calif.). GI50 is defined as the concentration of compound required for 50% inhibition of cell growth.
The cellular or growth inhibition activity results of representative compounds are shown in Table 4 below (unit in the table is micromolar).

Assay [1] concerns the target HDAC1 enzyme (recombinant GST-HDAC1) (Homo sapiens (Human), UniProt Q13547). Kind of assay: In vitro HDAC assay for determination of IC50 values (BIOMOL fluorescent-based HDAC activity assay). It is filed as biochemical. The following applies: Flur de lys substrate, 2 h room temperature, read-out: IC50 (HDAC 1). The procedure: Biological Testing and Enzyme Assays Recombinant GST-HDAC1 Protein Expression and Purification
Human cDNA library was prepared using cultured SW620 cells. Amplification of human HDAC1 coding region from this cDNA library was cloned separately into the baculovirus expression pDEST20 vector (GATEWAY Cloning Technology, Invitrogen Pte Ltd). The pDEST20-HDAC1 construct was confirmed by DNA sequencing. Recombinant baculovirus was prepared using the Bac-To-Bac method following the manufacturer's instruction (Invitrogen Pte Ltd).
Expression of GST-HDAC1 was done by infecting SF9 cells (Invitrogen Pte Ltd) with pDEST20-HDAC1 baculovirus at MOI=1 for 48 h. Soluble cell lysate was incubated with pre-equilibrated Glutathione Sepharose 4B beads (Amersham) at 4° C. for 2 h. The beads were washed with PBS buffer for 3 times. The GST-HDAC1 protein was eluted by elution buffer containing 50 mM Tris, pH8.0, 150 mM NaCl, 1% Triton X-100 and 10 mM or 20 mM reduced Glutathione. The purified GST-HDAC1 protein was dialyzed with HDAC storage buffer containing 10 mM Tris, pH7.5, 100 mM NaCl and 3 mM MgCl2. 20% Glycerol was added to purified GST-HDAC1 protein before storage at −80° C.
In Vitro HDAC Assay for Determination of IC50 Values
The assay has been carried out in 96 well format and the BIOMOL fluorescent-based HDAC activity assay has been applied. […] Flur de lys Developer was added and the reaction was incubated for 10 min. Briefly, deacetylation of the substrate sensitizes it to the developer, which then generates a fluorophore. The fluorophore is excited with 360 nm light and the emitted light (460 nm) is detected on a fluorometric plate reader (Tecan Ultra Microplate detection system, Tecan Group Ltd.).
The analytical software, Prism 4.0 (GraphPad Software Inc) has been used to generate IC50 from a series of data.

HDAC1 enzyme (recombinant GST-HDAC1), sequence (Q13547 whole entry): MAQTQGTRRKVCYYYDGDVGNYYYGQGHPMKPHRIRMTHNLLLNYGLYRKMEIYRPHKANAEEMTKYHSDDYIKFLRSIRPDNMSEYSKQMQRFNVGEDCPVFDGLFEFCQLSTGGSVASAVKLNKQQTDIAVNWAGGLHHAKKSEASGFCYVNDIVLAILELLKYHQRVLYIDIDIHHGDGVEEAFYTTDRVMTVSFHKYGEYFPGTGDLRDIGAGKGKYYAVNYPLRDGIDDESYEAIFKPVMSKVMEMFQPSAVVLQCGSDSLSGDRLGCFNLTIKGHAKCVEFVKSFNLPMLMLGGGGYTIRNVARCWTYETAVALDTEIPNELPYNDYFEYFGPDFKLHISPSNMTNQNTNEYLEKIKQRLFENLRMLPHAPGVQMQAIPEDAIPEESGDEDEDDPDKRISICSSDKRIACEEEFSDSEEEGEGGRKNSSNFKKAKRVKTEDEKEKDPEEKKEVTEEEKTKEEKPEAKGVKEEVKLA

Take `COc1cc(Nc2c(CCc3ccccc3)nc3ccc(/C=C/C(=O)NO)cn23)cc(OC)c1OC` [Compound 1, N-Hydroxy-3-[2-phenethyl-3-(3,4,5-trimethoxy-phenylamino)-imidazo[1,2-a]pyridin-6-yl]-acrylamide]: in the assay with Colo205 cells (COLO 205, 96 h treatment), the concentration for 50% growth inhibition (GI50) (usually the concentration at which growth is held to half of that of the control) was 2100 nM. Moreover, in assay [1], the concentration for half-maximal inhibition (IC50) (in general, the midpoint of a concentration-inhibition curve) amounted to 150 nM.
On the same counts, the results for `O=C(C=Cc1ccc2nc(CCc3ccccc3)c(NCc3ccc4c(c3)OCO4)n2c1)NO` [Compound 2, 3-{3-[(Benzo[1,3]-dioxol-5-ylmethyl)-amino]-2-phenethyl-imidazo[1,2-a]pyridin-6-yl}-N-hydroxyacrylamide] are 3900 nM and 720 nM.
On the same counts, the results for `O=C(/C=C/c1ccc2nc(CCc3ccccc3)c(Nc3ccc(N4CCCCC4)cc3)n2c1)NO` [Compound 3, N-Hydroxy-3-[2-phenethyl-3-(4-piperidin-1-yl-phenylamino)-imidazo[1,2-a]pyridin-6-yl]-acrylamide] are 1900 nM and 790 nM.
On the same counts, the results for `O=C(/C=C/c1ccc2nc(CCc3ccccc3)c(Nc3ccc4c(c3)OCO4)n2c1)NO` [Compound 4, 3-[3-(Benzo[1,3]-dioxol-5-ylamino)-2-phenethyl-imidazo[1,2-a]pyridin-6-yl]-N-hydroxy-acrylamide] are 2800 nM and 640 nM.
On to `COCCNc1c(CCc2ccccc2)nc2ccc(/C=C/C(=O)NO)cn12` [Compound 5, N-Hydroxy-3-[3-(2-methoxy-ethylamino)-2-phenethyl-imidazo[1,2-a]pyridin-6-yl]-acrylamide], for which growth in the assay on Colo205 cells (COLO 205, 96 h treatment) was halved (GI50) at 27000 nM. The half-maximal inhibitory concentration (IC50) in assay [1] is 350 nM.
In turn, `O=C(/C=C/c1ccc2nc(CCc3ccccc3)c(NC3CCCCC3)n2c1)NO` [Compound 6, 3-(3-Cyclohexylamino-2-phenethyl-imidazo[1,2-a]pyridin-6-yl)-N-hydroxy-acrylamide] had a concentration for 50% growth inhibition (GI50) in the assay on Colo205 cells (COLO 205, 96 h treatment) of 42000 nM. Moreover, in assay [1], the 50% inhibitory concentration (IC50) came to 1400 nM.
In the case of `COCCNc1c(C(C)C)nc2ccc(/C=C/C(=O)NO)cn12` [Compound 7, N-Hydroxy-3-[2-isopropyl-3-(2-methoxy-ethylamino)-imidazo[1,2-a]pyridin-6-yl]-acrylamide], the 50% growth inhibitory concentration (GI50) in the assay with Colo205 cells (COLO 205, 96 h treatment) was 9300 nM. For the same compound, in assay [1], the half-inhibitory concentration (IC50) turned out to be 2700 nM.
On the same counts, the results for `COCCNc1c(CC(C)(C)C)nc2ccc(/C=C/C(=O)NO)cn12` [Compound 8, 3-[2-(2,2-Dimethyl-propyl)-3-(2-methoxy-ethylamino)-imidazo[1,2-a]pyridin-6-yl]-N-hydroxy-acrylamide] are 14000 nM and 1000 nM.
On the same counts, the results for `CCCCCc1nc2ccc(/C=C/C(=O)NO)cn2c1NCCOC` [Compound 9, N-Hydroxy-3-[3-(2-methoxy-ethylamino)-2-pentyl-imidazo[1,2-a]pyridin-6-yl]-acrylamide] are 5300 nM and 1300 nM.
Turning to `COCCNc1c(CCC(=O)O)nc2ccc(/C=C/C(=O)NO)cn12` [Compound 10, 3-[6-(2-Hydroxycarbamoyl-vinyl)-3-(2-methoxy-ethylamino)-imidazo[1,2-a]pyridin-2-yl]-propionic acid], growth with Colo205 cells (COLO 205, 96 h treatment) was halved (GI50) at 39000 nM.
The compound `CCc1nc2ccc(/C=C/C(=O)NO)cn2c1NCCOC` [Compound 11, 3-[2-Ethyl-3-(2-methoxy-ethylamino)-imidazo[1,2-a]pyridin-6-yl]-N-hydroxy-acrylamide] yielded a GI50 in the assay with Colo205 cells (COLO 205, 96 h treatment) of over 10000 nM. Also, in assay [1], the IC50 was determined as 6000 nM.
Compound `CC(C)(C)Nc1c(C(=O)O)nc2ccc(/C=C/C(=O)NO)cn12` [Compound 12, 3-tert-Butylamino-6-(2-hydroxycarbamoyl-vinyl)-imidazo[1,2-a]pyridine-2-carboxylic acid] registered a GI50 in the assay on Colo205 cells (COLO 205, 96 h treatment) of 20000 nM.
For the compound `CCCCNc1c(CCCC)nc2ccc(/C=C/C(=O)NO)cn12` [Compound 13, 3-(2-Butyl-3-butylamino-imidazo[1,2-a]pyridin-6-yl)-N-hydroxy-acrylamide], the concentration for 50% growth inhibition (GI50) with Colo205 cells (COLO 205, 96 h treatment) amounted to 8900 nM. Moreover, the half-inhibitory concentration (IC50) in assay [1] was determined as 720 nM.
On the same counts, the results for `CC(C)Nc1c(C(C)C)nc2ccc(/C=C/C(=O)NO)cn12` [Compound 14, N-Hydroxy-3-(2-isopropyl-3-isopropylamino-imidazo[1,2-a]pyridin-6-yl)-acrylamide] are 9200 nM and 2700 nM.
On the same counts, the results for `COCCNc1c(CC(C)CC(C)(C)C)nc2ccc(/C=C/C(=O)NO)cn12` (centres unmarked) [Compound 15, (E)-N-hydroxy-3-(3-(2-methoxyethylamino)-2-(2,4,4-trimethylpentyl)imidazo[1,2-a]pyridin-6-yl)acrylamide] are 16000 nM and 760 nM.
Regarding `CCCCCCc1nc2cc(/C=C/C(=O)NO)ccn2c1NCCC(=O)N(C)CC#N` [Compound 31, 3-{3-[2-(Cyanomethyl-methyl-carbamoyl)-ethylamino]-2-hexyl-imidazo[1,2-a]pyridin-7-yl}-N-hydroxy-acrylamide], growth with Colo205 cells (COLO 205, 96 h treatment) was halved (GI50) at 1900 nM.
Take `CCC(CC)NCc1c(C(C)(C)C)nc2cc(C=CC(=O)NO)ccn12` [Compound 68, 3-{2-tert-Butyl-3-[(1-ethyl-propylamino)-methyl]-imidazo[1,2-a]pyridin-7-yl}-N-hydroxy-acrylamide]: in the assay with Colo205 cells (COLO 205, 96 h, 96 h treatment), it took 1500 nM to inhibit growth by half (GI50).
For the compound `CCCCN(CCCC)Cc1c(C)nc2cc(/C=C/C(=O)NO)ccn12` [Compound 81, 3-(3-Dibutylaminomethyl-2-methyl-imidazo[1,2-a]pyridin-7-yl)-N-hydroxy-acrylamide], in the assay on Colo205 cells (COLO 205, 96 h treatment), the GI50 turned out to be 800 nM.
The compound `CCC(C)CN(CC)Cc1c(C(C)(C)C)nc2cc(/C=C/C(=O)NO)ccn12` (centres unmarked) [Compound 88, 3-(2-tert-Butyl-3-{[ethyl-(2-methyl-butyl)-amino]-methyl}-imidazo[1,2-a]pyridin-7-yl)-N-hydroxy-acrylamide] returned a GI50 in the assay with Colo205 cells (COLO 205, 96 h treatment) of 2200 nM.
As to `CCCCCCCN(CC)Cc1c(C(C)(C)C)nc2cc(/C=C/C(=O)NO)ccn12` [Compound 94, 3-{2-tert-Butyl-3-[(ethyl-heptyl-amino)-methyl]-imidazo[1,2-a]pyridin-7-yl}-N-hydroxy-acrylamide], in the assay on Colo205 cells (COLO 205, 96 h, 96 h treatment), the 50% growth inhibitory concentration (GI50) stood at 2700 nM.
Same read-out and setting: to `CCCCc1nc2cc(/C=C/C(=O)NO)ccn2c1CN(CC)CC(C)CCC` (centres unmarked) [Compound 113, 3-(2-Butyl-3-{[ethyl-(2-methyl-pentyl)-amino]-methyl}-imidazo[1,2-a]pyridin-7-yl)-N-hydroxy-acrylamide] belongs 370 nM.
Regarding `CCN(CCC(C)C)Cc1c(C)nc2cc(/C=C/C(=O)NO)ccn12` [Compound 124, 3-(3-{[Ethyl-(3-methyl-butyl)-amino]-methyl}-2-methyl-imidazo[1,2a]pyridin-7-yl)-N-hydroxy-acrylamide], the 50% growth inhibitory concentration (GI50) in the assay on Colo205 cells (COLO 205, 96 h treatment) stood at 110 nM.
Still for that read-out and setting: to `CCN(CCC(C)C)Cc1c(CC(C)C)nc2cc(/C=C/C(=O)NO)ccn12` [Compound 135, 3-(3-{[Ethyl-(3-methyl-butyl)-amino]-methyl}-2-isobutyl-imidazo[1,2-a]pyridin-7-yl)-N-hydroxy-acrylamide] belongs 150 nM.
On the same count and under the same terms, with `CCN(CCC(C)(C)C)Cc1c(CC(C)C)nc2cc(/C=C/C(=O)NO)ccn12` [Compound 136, 3-(3-{[(3,3-Dimethyl-butyl)-ethyl-amino]-methyl}-2-isobutyl-imidazo[1,2-a]pyridin-7-yl)-N-hydroxy-acrylamide] the figure was 170 nM.
The same measure, in the same setting: to `CCN(CCC(C)C)Cc1c(CCC(C)C)nc2cc(/C=C/C(=O)NO)ccn12` [Compound 142, 3-[3-{[Ethyl-(3-methyl-butyl)-amino]-methyl}-2-(3-methyl-butyl)-imidazo[1,2-a]pyridin-7-yl]-N-hydroxy-acrylamide] belongs 130 nM.
